These results are taken from publication PMC4448982, “LP-925219 maximizes urinary glucose excretion in mice by inhibiting both renal SGLT1 and SGLT2” (Pharmacology Research & Perspectives, 2015).

Format in all cases: cell-based
Holding throughout (settings): mean ± SD

In experiment [1] the target is T1, mouse SGLT2 (Mus musculus, UniProt Q923I7).
T1 construct: expressed in transfected cells; host or cells: HEK293 (per abstract)
T1 sequence (Q923I7 1-670): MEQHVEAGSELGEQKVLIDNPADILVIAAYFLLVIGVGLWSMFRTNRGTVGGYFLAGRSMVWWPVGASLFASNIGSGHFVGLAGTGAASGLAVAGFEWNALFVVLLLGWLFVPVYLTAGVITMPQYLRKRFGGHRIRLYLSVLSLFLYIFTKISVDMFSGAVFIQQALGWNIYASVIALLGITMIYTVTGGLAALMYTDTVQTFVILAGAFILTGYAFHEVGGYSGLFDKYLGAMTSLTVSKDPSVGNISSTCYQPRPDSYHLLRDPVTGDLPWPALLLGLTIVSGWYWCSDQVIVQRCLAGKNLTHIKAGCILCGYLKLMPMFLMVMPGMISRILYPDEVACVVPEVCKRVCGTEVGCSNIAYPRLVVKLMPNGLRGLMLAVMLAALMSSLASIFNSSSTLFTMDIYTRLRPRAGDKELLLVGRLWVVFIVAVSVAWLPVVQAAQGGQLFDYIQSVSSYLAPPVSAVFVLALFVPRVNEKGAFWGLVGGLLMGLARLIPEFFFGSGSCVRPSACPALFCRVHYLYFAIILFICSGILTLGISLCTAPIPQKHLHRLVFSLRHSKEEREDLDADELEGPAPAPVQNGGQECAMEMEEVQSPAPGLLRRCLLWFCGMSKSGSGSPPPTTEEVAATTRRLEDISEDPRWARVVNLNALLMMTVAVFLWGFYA
The experiment can be described thus: 14C-AMG uptake assay, HEK293 cells expressing mouse SGLT2. The text has this:
(§1) Methods for generating cell lines expressing mouse, rat, and dog SGLT1 and SGLT2 are published (Powell et al. [2013b], [2014]). Full-length coding sequence of human SGLT1 (NP_000334) and human SGLT2 (NP_003032.1) with an HA-tag at the N-terminus were cloned into the mammalian expression vector pIRESpuro2 (Clontech, Mountain View, CA). HEK293 cells (ATCC, Manassas, VA) were transfected with the pIRESpuro2 vector containing human SGLT1 or SGLT2 and bulk stable cell lines were selected in the presence of 0.5 μg/mL of puromycin.
(§2) Cell lines expressing SGLT1 or SGLT2 were plated into poly-D-lysine-coated 384-well plates, and culture overnight in cell growth medium. Cells were washed, and then incubated in uptake buffer ([…], […] KCl, […] CaCl2, […] MgCl2, […] HEPES/Tris, 1 mg/mL of bovine serum albumin, pH7.4) containing [^14C]α-methylglucopyranoside (^14C-AMG), a nonmetabolizable glucose analog specific for sodium-dependent glucose transporters (Wright and Turk [2004]). The inhibition of SGLT1 or SGLT2 was determined by measuring SGLT1/2-mediated ^14C-AMG uptake in the presence of increasing compound concentrations of LP-925219. […] Standard sigmoidal dose–response model curves were fitted, and the IC50 value was computed as the LP-925219 concentration that inhibited the ^14C-AMG uptake by 50% between baseline and maximum uptake.

Experiment [2] addresses T2, mouse SGLT1 (Mus musculus, UniProt Q8C3K6).
T2 construct: expressed in transfected cells; host or cells: HEK293 (per abstract)
T2 sequence (Q8C3K6 1-665): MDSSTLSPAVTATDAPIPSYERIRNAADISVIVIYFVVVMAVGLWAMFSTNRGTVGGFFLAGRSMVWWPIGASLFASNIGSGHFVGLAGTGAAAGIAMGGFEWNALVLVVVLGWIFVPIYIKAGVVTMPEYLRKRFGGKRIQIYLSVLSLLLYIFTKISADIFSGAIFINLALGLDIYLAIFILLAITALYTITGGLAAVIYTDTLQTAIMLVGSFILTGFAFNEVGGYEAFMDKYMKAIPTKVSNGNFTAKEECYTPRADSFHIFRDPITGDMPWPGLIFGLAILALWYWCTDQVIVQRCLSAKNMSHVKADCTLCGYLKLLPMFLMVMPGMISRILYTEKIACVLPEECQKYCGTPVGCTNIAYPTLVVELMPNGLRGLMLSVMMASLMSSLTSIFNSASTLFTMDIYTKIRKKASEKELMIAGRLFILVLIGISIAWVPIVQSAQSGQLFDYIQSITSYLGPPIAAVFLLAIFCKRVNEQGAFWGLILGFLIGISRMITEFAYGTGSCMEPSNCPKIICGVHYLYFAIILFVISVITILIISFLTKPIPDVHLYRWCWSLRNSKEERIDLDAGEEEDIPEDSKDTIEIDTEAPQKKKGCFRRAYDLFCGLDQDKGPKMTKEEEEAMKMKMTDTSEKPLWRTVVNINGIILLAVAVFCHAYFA
As to the kind of experiment: 14C-AMG uptake assay, HEK293 cells expressing mouse SGLT1.
Source text: as §1, §2

Experiment [3] has as its target T3, rat SGLT2 (Rattus norvegicus, UniProt P53792).
T3 construct: expressed in transfected cells; host or cells: HEK293 (per abstract)
T3 sequence (P53792 1-670): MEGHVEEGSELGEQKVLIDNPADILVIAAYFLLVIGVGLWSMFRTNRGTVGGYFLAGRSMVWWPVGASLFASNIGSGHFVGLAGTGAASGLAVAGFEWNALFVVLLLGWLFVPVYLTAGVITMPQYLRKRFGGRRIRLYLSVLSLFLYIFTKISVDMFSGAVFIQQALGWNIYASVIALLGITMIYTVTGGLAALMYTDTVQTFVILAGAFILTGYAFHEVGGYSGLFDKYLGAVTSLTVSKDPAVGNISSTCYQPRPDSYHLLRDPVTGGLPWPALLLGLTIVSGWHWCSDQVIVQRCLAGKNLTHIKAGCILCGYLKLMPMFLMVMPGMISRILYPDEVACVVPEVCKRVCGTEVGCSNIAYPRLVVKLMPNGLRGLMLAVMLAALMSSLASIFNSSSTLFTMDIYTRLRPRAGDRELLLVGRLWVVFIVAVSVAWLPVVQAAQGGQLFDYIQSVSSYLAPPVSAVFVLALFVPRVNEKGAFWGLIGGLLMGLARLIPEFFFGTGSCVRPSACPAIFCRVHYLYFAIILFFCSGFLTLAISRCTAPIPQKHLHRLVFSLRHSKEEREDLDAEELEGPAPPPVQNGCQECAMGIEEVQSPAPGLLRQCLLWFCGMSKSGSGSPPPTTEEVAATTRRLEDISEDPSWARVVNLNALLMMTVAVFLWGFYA
As to the kind of experiment: 14C-AMG uptake assay, cells expressing rat SGLT2.
Source text: as §1, §2

SMILES strings stand for the structures.

For the compound `COc1ccc(Cc2cc([C@@H]3O[C@H](SC)[C@@H](O)[C@H](O)[C@H]3O)ccc2Cl)cc1` [LP-925219], the IC50 in experiment [1] is 0.5 ± 0.1 nM; in experiment [2], 22.6 ± 1 nM; in experiment [3], 0.3 ± 0.2 nM.

By IC50 is commonly meant the point on the concentration scale where inhibition reaches its midpoint. A lower IC50 goes with greater potency.
